± gives the expanded uncertainty stated by the source.
Details: 101.33 kPa, Liquid; for speed of sound: Sing-around technique in a fixed-path interferometer; for mass density: Vibrating tube method

CCOC(C)=O [ethyl acetate]
speed of sound (298.15 K): 1141 ± 10 m/s
mass density (298.15 K): 894.4 ± 2 kg/m3
speed of sound (303.15 K): 1118 ± 10 m/s
mass density (303.15 K): 888.5 ± 2 kg/m3
speed of sound (308.15 K): 1096 ± 10 m/s
mass density (308.15 K): 882.7 ± 2 kg/m3
speed of sound (313.15 K): 1073 ± 10 m/s
mass density (313.15 K): 876.3 ± 2 kg/m3

CCO [ethanol]
speed of sound (298.15 K): 1149 ± 10 m/s
mass density (298.15 K): 785.7 ± 2 kg/m3
speed of sound (303.15 K): 1128 ± 10 m/s
mass density (303.15 K): 782 ± 2 kg/m3
speed of sound (308.15 K): 1098 ± 10 m/s
mass density (308.15 K): 777.7 ± 2 kg/m3
speed of sound (313.15 K): 1086 ± 10 m/s
mass density (313.15 K): 773.6 ± 2 kg/m3

— the NIST ThermoML archive (doi:10.1016/j.tca.2013.05.015)
